Experimental data as given in PubChem BioAssay (NCI).
Several values for one entry are separate records, joined by “and”; a condition that tells them apart may be missing. Equal entries are not always repeated.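 Tested at 5 concentrations; 48 h exposure; 96-well plates; endpoints linearly interpolated, else capped at highest concentration. Abbreviation: GI50, concentration required for 50% inhibition of growth. Definition used: TGI = concentration required for complete inhibition of growth.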

Legend:
Experiment in all cases: NCI-60 cell line screen, 48 h
[1] = test system: MDA-MB-468 breast
[2] = test system: 786-0 renal
[3] = test system: A498 renal
[4] = test system: A549 NSCLC
[5] = test system: ACHN renal
[6] = test system: BT-549 breast
[7] = test system: CAKI-1 renal
[8] = test system: CCRF-CEM leukemia
[9] = test system: DU-145 prostate
[10] = test system: EKVX NSCLC
[11] = test system: HCC-2998 colon
[12] = test system: HCT-116 colon
[13] = test system: HCT-15 colon
[14] = test system: HL-60(TB) leukemia
[15] = test system: HOP-62 NSCLC
[16] = test system: HOP-92 NSCLC
[17] = test system: HS 578T breast
[18] = test system: HT29 colon
[19] = test system: IGROV1 ovarian
[20] = test system: KM12 colon
[21] = test system: LOX IMVI melanoma
[22] = test system: M14 melanoma
[23] = test system: MALME-3M melanoma
[24] = test system: MCF7 breast
[25] = test system: MDA-MB-231 breast
[26] = test system: MDA-MB-435
[27] = test system: MOLT-4 leukemia
[28] = test system: NCI-H226 lung
[29] = test system: NCI-H23 lung
[30] = test system: NCI-H460 lung
[31] = test system: NCI-H522 lung
[32] = test system: NCI/ADR-RES ovarian
[33] = test system: OVCAR-3 ovarian
[34] = test system: OVCAR-4 ovarian
[35] = test system: OVCAR-5 ovarian
[36] = test system: OVCAR-8 ovarian
[37] = test system: PC-3 prostate
[38] = test system: RPMI-8226 leukemia
[39] = test system: RXF 393 renal
[40] = test system: SF-268 CNS
[41] = test system: SF-295 CNS
[42] = test system: SF-539 CNS
[43] = test system: SK-MEL-2 melanoma
[44] = test system: SK-MEL-28 melanoma
[45] = test system: SK-MEL-5 melanoma
[46] = test system: SK-OV-3 ovarian
[47] = test system: SN12C renal
[48] = test system: SNB-19 CNS
[49] = test system: SNB-75 CNS
[50] = test system: SR leukemia
[51] = test system: T-47D breast
[52] = test system: TK-10 renal
[53] = test system: U251 CNS
[54] = test system: UACC-257 melanoma
[55] = test system: UACC-62 melanoma
[56] = test system: UO-31 renal

CC/C(=C/c1ccc(OC)cc1OC)[N+](=O)[O-]
GI50 [1]: 2.02 µM | TGI [1]: 4.3 µM

CC[C@H](C)[C@H](NC(=O)c1cccn1C)C(=O)N(C)[C@H](C[C@@H](OC(C)=O)c1nc(C(=O)N[C@@H](Cc2ccccc2)C[C@H](C)C(=O)OC)cs1)C(C)C
GI50 [1]: 0.0683 µM | TGI [1]: 10.8 µM

Nc1cccc2c1C(=O)c1cccc(NC(=O)c3ccccc3)c1C2=O
GI50 [1]: 0.577 µM | TGI [1]: 7.03 µM

CCN(CC)CCCCNc1c2ccc(Cl)cc2nc2ccc(OC)cc12
GI50 [1]: 0.317 µM | TGI [1]: 1.83 µM

CC(C)(C)OC(=O)N[C@@H](Cc1ccccc1)C(=O)N(Cc1ccccc1)C1(C(=O)NCc2ccccc2)CCN(Cc2ccccc2)CC1
GI50 [1]: 1.62 µM | TGI [1]: 5.91 µM

ClC(Cl)c1nc(-c2cccs2)n2nc(-c3ccccc3)cc2n1
GI50 [1]: 0.224 µM | TGI [1]: 0.688 µM

COc1ccc2nc3cc(Cl)ccc3c(Nc3cc(CN4CCCC4)c(O)c(CN4CCCC4)c3)c2n1
GI50 [1]: 1.33 µM | TGI [1]: 2.76 µM

CCn1c2ccccc2c2cc(C(=O)c3ccc(C)c4ccccc34)ccc21
GI50 [1]: 0.291 µM | TGI [1]: 0.918 µM

C=C1CCC2C3(C)COC(c4ccccc4Cl)OC3CCC2(C)C1/C=C/C1=CCOC1=O (stereo not given)
GI50 [1]: 4.96 µM | TGI [1]: > 100 µM

COc1ccc(NC(=O)Cn2c(/C=C/c3ccc(N(C)C)cc3)nc3ccccc3c2=O)cc1
GI50 [2]: 2.03 µM | TGI [2]: 4.62 µM | GI50 [3]: 4.19 µM | TGI [3]: 19.8 µM | GI50 [4]: 13.9 µM | TGI [4]: > 100 µM | GI50 [5]: 3.25 µM | TGI [5]: 11.4 µM | GI50 [6]: 2.01 µM | TGI [6]: 5.43 µM | GI50 [7]: 4.12 µM | TGI [7]: 20.7 µM | GI50 [8]: > 100 µM | TGI [8]: > 100 µM | GI50 [9]: 7.64 µM | TGI [9]: > 100 µM | GI50 [10]: 40.3 µM | TGI [10]: > 100 µM | GI50 [11]: 6.21 µM | TGI [11]: > 100 µM | GI50 [12]: 3.05 µM | TGI [12]: 11.2 µM | GI50 [13]: 13.6 µM | TGI [13]: > 100 µM | GI50 [14]: > 100 µM | TGI [14]: > 100 µM | GI50 [15]: 5 µM | TGI [15]: 20.6 µM | GI50 [16]: 3.65 µM | TGI [16]: 18.9 µM | GI50 [17]: 4.88 µM | TGI [17]: 74.9 µM | GI50 [18]: 6.32 µM | TGI [18]: > 100 µM | GI50 [19]: 36.7 µM | TGI [19]: > 100 µM | GI50 [20]: > 100 µM | TGI [20]: > 100 µM | GI50 [21]: 4.48 µM | TGI [21]: > 100 µM | GI50 [22]: 12.9 µM | TGI [22]: > 100 µM | GI50 [23]: 3.95 µM | TGI [23]: 24 µM | GI50 [24]: 4.35 µM | TGI [24]: > 100 µM | GI50 [25]: 2.61 µM | TGI [25]: 6.84 µM | GI50 [26]: 7.19 µM | TGI [26]: > 100 µM | GI50 [1]: 3.11 µM | TGI [1]: 21.2 µM | GI50 [27]: > 100 µM | TGI [27]: > 100 µM | GI50 [28]: 2.31 µM | TGI [28]: 6.24 µM | GI50 [29]: 3.79 µM | TGI [29]: 22.5 µM | GI50 [30]: 3.63 µM | TGI [30]: > 100 µM | GI50 [31]: 5.69 µM | TGI [31]: 29.4 µM | GI50 [32]: 3.51 µM | TGI [32]: 20.4 µM | GI50 [33]: > 100 µM | TGI [33]: > 100 µM | GI50 [34]: 28.9 µM | TGI [34]: > 100 µM | GI50 [35]: > 100 µM | TGI [35]: > 100 µM | GI50 [36]: 13.5 µM | TGI [36]: > 100 µM | GI50 [37]: 5.6 µM | TGI [37]: > 100 µM | GI50 [38]: 7.14 µM | TGI [38]: > 100 µM | GI50 [39]: 2.09 µM | TGI [39]: 5.27 µM | GI50 [40]: 12.4 µM | TGI [40]: > 100 µM | GI50 [41]: 3 µM | TGI [41]: 11.9 µM | GI50 [42]: 1.79 µM | TGI [42]: 3.67 µM | GI50 [43]: 16.1 µM | TGI [43]: 47.9 µM | GI50 [44]: 6.07 µM | TGI [44]: > 100 µM | GI50 [45]: 2.96 µM | TGI [45]: 10.4 µM | GI50 [46]: 3.22 µM | TGI [46]: 8.35 µM | GI50 [47]: > 100 µM | TGI [47]: > 100 µM | GI50 [48]: 13.1 µM | TGI [48]: 40.3 µM | GI50 [49]: 3.86 µM | TGI [49]: 39.9 µM | GI50 [50]: > 100 µM | TGI [50]: > 100 µM | GI50 [51]: 4.27 µM | TGI [51]: > 100 µM | GI50 [52]: 6.22 µM | TGI [52]: 24.2 µM | GI50 [53]: 3.72 µM | TGI [53]: 18.5 µM | GI50 [54]: 84.5 µM | TGI [54]: > 100 µM | GI50 [55]: 2.96 µM | TGI [55]: 13.1 µM | GI50 [56]: 2.92 µM | TGI [56]: 31.3 µM

COC[C@]12CCC(C)(C)C[C@H]1C1=CC[C@@H]3[C@@]4(C)CCCNC(C)(C)[C@@H]4CC[C@@]3(C)[C@]1(C)CC2
GI50 [1]: 1.53 µM | TGI [1]: 3.23 µM

COC(=O)[C@H](Cc1cn(C)cn1)NC(=O)[C@H](Cc1ccccc1)NC(=O)Nc1cc(C(F)(F)F)cc(C(F)(F)F)c1
GI50 [1]: 4.4 µM and 4.23 µM | TGI [1]: 17.7 µM

COC(=O)N[C@H]1CCc2c(Cl)c(OC)c(OC)c(OC)c2-c2ccc(SC)c(=O)cc21
GI50 [1]: < 0.01 µM | TGI [1]: 23.1 µM

O=C(Nc1cccc(C(F)(F)F)c1)Oc1ccc(Cl)c2cccnc12
GI50 [1]: 1.79 µM | TGI [1]: 4.28 µM

O=C(/C=C/C12c3ccccc3C(c3ccccc31)C1C(=O)NC(=O)C12)c1ccccc1 (stereo not given)
GI50 [1]: 1.72 µM | TGI [1]: 3.68 µM

COc1ccc2[nH]c(C(=O)OCc3ccc4c(Cl)cc(Cl)c(O)c4n3)cc2c1
GI50 [1]: 1.36 µM | TGI [1]: 2.77 µM

COc1cc(C(=O)c2cocc2C(=O)c2ccc3c(c2)OCO3)cc(OC)c1OC
GI50 [1]: 4.05 µM | TGI [1]: > 100 µM

Cc1ccc(C(=O)NC2CC2)cc1-c1ccc2[nH]ncc2c1
GI50 [1]: > 23 µM | TGI [1]: > 25 µM

CCn1c(-c2nonc2N)nc2c(N3CCCC3)nccc21
GI50 [1]: 8.92 µM | TGI [1]: > 25 µM

COc1cc2nccc(Oc3ccc(NC(=O)c4cn(C(C)C)c(=O)n(-c5ccc(F)cc5)c4=O)cc3F)c2cc1OC
GI50 [1]: > 100 µM | TGI [1]: > 100 µM

c1ccc2c(c1)cc1ccc3cccc4ccc2c1c34
GI50 [1]: 0.157 µM | TGI [1]: 0.312 µM

O=C1c2cc3c(cc2-c2c1c1ccc(Cl)cc1c(=O)n2CCCn1ccnc1)OCO3
GI50 [1]: < 0.01 µM | TGI [1]: 0.0144 µM

C=C(C)[C@@H]1CC[C@]2(C(=O)NS(=O)(=O)c3ccccc3)CC[C@]3(C)[C@H](CC[C@@H]4[C@@]5(C)CC[C@H](OC(=O)NS(=O)(=O)c6ccccc6)C(C)(C)[C@@H]5CC[C@]43C)[C@@H]12
GI50 [1]: 2.22 µM | TGI [1]: 10.2 µM

CC(C)c1ccc(NC(=O)Cc2ccc(Nc3ncnc4cc(-c5cnn(CCN(C)C)c5)ccc34)cc2)cc1
GI50 [1]: 1.34 µM | TGI [1]: 3.72 µM

O=P(O)(O)OCC1OC(n2cnc3c(NCc4ccccc4)ncnc32)C(O)C1O (stereo not given)
GI50 [1]: 0.925 µM | TGI [1]: 4.12 µM

CNC(=O)c1ccccc1Nc1nc(Nc2ccc3c(c2OC)CCC[C@H](N2CCN(CCO)CC2)C3)ncc1Cl
GI50 [1]: 1.21 µM and 0.696 µM | TGI [1]: 3.33 µM and 2.5 µM

COc1ccc(S(=O)(=O)N(C(C)=O)c2ccccc2/C=C/c2cc[n+]([O-])cc2)cc1
GI50 [1]: 0.461 µM | TGI [1]: > 10 µM

CCCCn1c(=O)c(/C=C/C(=O)/C=C/c2cc3ccccc3n(CCCC)c2=O)cc2ccccc21
GI50 [1]: 1.64 µM | TGI [1]: 3.76 µM

C[N+](C)=c1ccc2nc3c(cc(NCCCNc4cc5oc6cc(=[N+](C)C)ccc-6nc5c5ccccc45)c4ccccc43)oc-2c1
GI50 [1]: 0.193 µM | TGI [1]: 1.35 µM

CNC(=O)c1cncc(/C=C/c2ccccc2Cl)c1
GI50 [1]: 9.17 µM | TGI [1]: > 25 µM

CS(=O)(=O)N(c1cc(-c2ccc3ncnc(Nc4ccc(F)c(Cl)c4)c3c2)cnc1Cl)S(C)(=O)=O
GI50 [1]: 0.467 µM | TGI [1]: 2.55 µM

O=c1[nH]c(=O)n(C2CC(O)C(CO)O2)cc1C(F)(F)F (stereo not given)
GI50 [1]: > 85.4 µM | TGI [1]: > 100 µM

CC(C)(C)OC(=O)Nc1ccc2c(c1)C(NC(=O)Nc1cccc(C#N)c1)CC(C)(C)O2 (stereo not given)
GI50 [1]: 0.381 µM | TGI [1]: 9.9 µM

COc1cc(NCCCCCN=C(N)NC(N)=NC(C)C)c2ncccc2c1
GI50 [1]: 0.0903 µM | TGI [1]: 0.594 µM

Cc1cc(O)c(-c2ccc([C@@H](C)CN(C)C)cc2)c2c1[nH]c(=O)c1sccc12
GI50 [1]: 0.514 µM | TGI [1]: 3.94 µM
